Measured values reported in US9278958B2, “Anti-cancer compounds” (KATHOLIEKE UNIVERSITEIT LEUVEN, priority 2012, dated 2016).
Where two headings read alike, the source gives them in different places.

How the values were obtained:
HUT-78 cells = experiment: Cytostatic assay, HUT-78; assay type: cell-based; settings: Homo sapiens, HuT78; Table 2
Description: (§1) To each well of a 96-well microtiter plate were added 5-7.5×10^4 cells and a given amount of the test compound. The cells were allowed to proliferate for 48 h to 96 h (depending on the nature of the cell line) at 37° C. in a humidified CO2-controlled atmosphere. At the end of the incubation period, the cells were counted in a Coulter Counter (Coulter Electronics Ltd, Harpenden Herts, United Kingdom).

BPH-1 (UZ) = experiment: Cytostatic assay, BPH-1 (UZ); assay type: cell-based; settings: Homo sapiens, Table 4
Description: as §1

[1] = test system: BAEC aortic endothelial cells; experiment: Cytostatic assay, BAEC; assay type: cell-based, bovine; settings: Bos taurus, Table 3
Description: as §1

[2] = test system: 293T embryonic kidney cells; experiment: Cytostatic assay, 293T; assay type: cell-based; settings: Homo sapiens, HEK-293T; Table 3
Description: as §1

MT-4 cells = experiment: Cytostatic assay, MT-4; assay type: cell-based; settings: Homo sapiens, MT4; Table 2
Description: as §1

[3] = test system: 22Rv1 (UZ) prostate cancer cells; experiment: Cytostatic assay, 22Rv1 (UZ); assay type: cell-based; settings: Homo sapiens, Table 4
Description: as §1

[4] = test system: DU145 (UZ) prostate cancer cells; experiment: Cytostatic assay, DU145 (UZ); assay type: cell-based; settings: Homo sapiens, DU-145; Table 4
Description: as §1

Huh-7 hepatoma cells = experiment: Cytostatic assay, Huh-7; assay type: cell-based; settings: Homo sapiens, Table 4
Description: as §1

C8166 cells = experiment: Cytostatic assay, C8166; assay type: cell-based; settings: Homo sapiens, Table 2
Description: as §1

CEM cells = experiment: Cytostatic assay, CEM; assay type: cell-based; settings: Homo sapiens, CCRF-CEM
In short: (§2)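 Each cell line grows in the presence of compound for 48 h to 96 h, the duration chosen per line, at 37° C in a humid CO2-regulated incubator. Seeding is 5-7.5×10^4 cells per well, and final counts come from a Coulter counter.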

[5] = test system: THP-1, human monocytic cells; experiment: Cytostatic assay, THP-1; assay type: cell-based; settings: Table 2
Description: as §1

[6] = test system: PC-3 (UZ) prostate cancer cells; experiment: Cytostatic assay, PC-3 (UZ); assay type: cell-based; settings: Table 4
Description: as §1

[7] = test system: Caki-1 kidney carcinoma cells; experiment: Cytostatic assay, Caki-1; assay type: cell-based; settings: Homo sapiens, Table 3
Description: as §1

[8] = test system: FM3A mammary carcinoma cells; experiment: Cytostatic assay, FM3A; assay type: cell-based, murine; settings: Mus musculus, Table 3
Description: as §1

[9] = test system: Raji, human B-lymphoma cells; experiment: Cytostatic assay, Raji; assay type: cell-based; settings: Table 2
Description: as §1

[10] = test system: HT29 colorectal carcinoma cells; experiment: Cytostatic assay, HT29; assay type: cell-based; settings: Homo sapiens, HT-29; Table 3
Description: as §1

PLC/PRF/5 hepatoma cells = experiment: Cytostatic assay, PLC/PRF/5; assay type: cell-based; settings: Homo sapiens, Table 4
Description: as §1

[11] = test system: HeLa cervix carcinoma cells; experiment: Cytostatic assay, HeLa; assay type: cell-based, human; settings: Homo sapiens; Table 3; read-out: Cytostatic activity (μM) Hela
In short: as §2

U87 glioma cells = experiment: Cytostatic assay, U87; assay type: cell-based; settings: Homo sapiens, U-87 MG; Table 3
Description: as §1

[12] = test system: OST TK- osteosarcoma cells; experiment: Cytostatic assay, OST TK-; assay type: cell-based; settings: Homo sapiens; Table 3
Description: as §1

[13] = test system: HL60, human leukemia cells; experiment: Cytostatic assay, HL-60; assay type: cell-based; settings: Table 2
Description: as §1

L1210 cells = experiment: Cytostatic assay, L1210; assay type: cell-based; settings: Mus musculus, Table 2
Description: as §1

Molt4/C8 cells = experiment: Cytostatic assay, Molt4/C8; assay type: cell-based; settings: Table 2
Description: as §1

[14] = test system: MCF-7 mammary carcinoma cells; experiment: Cytostatic assay, MCF-7; assay type: cell-based; settings: Homo sapiens, MCF7; Table 3
Description: as §1

[15] = test system: PC3 (rega) prostate cancer cells; experiment: Cytostatic assay, PC3 (rega); assay type: cell-based; settings: Table 4
Description: as §1

[16] = test system: Caki-2 kidney carcinoma cells; experiment: Cytostatic assay, Caki-2; assay type: cell-based; settings: Homo sapiens, Table 3
Description: as §1

[17] = test system: PNT1A (UZ) prostate cells; experiment: Cytostatic assay, PNT1A (UZ); assay type: cell-based; settings: Homo sapiens, Table 4
Description: as §1

HepG2C3A hepatoma cells = experiment: Cytostatic assay, HepG2C3A; assay type: cell-based; settings: Homo sapiens, HepG2/C3A; Table 4
Description: as §1

MT-2 cells = experiment: Cytostatic assay, MT-2; assay type: cell-based; settings: Homo sapiens, MT2; Table 2
Description: as §1

[18] = test system: LNCaP (UZ) prostate cancer cells; experiment: Cytostatic assay, LNCaP (UZ); assay type: cell-based; settings: Homo sapiens, Table 4
Description: as §1

[19] = test system: HEL embryonic lung fibroblast cells; experiment: Cytostatic assay, HEL; assay type: cell-based; settings: Homo sapiens, Table 3
Description: as §1

Sup T1 cells = experiment: Cytostatic assay, Sup T1; assay type: cell-based; settings: Homo sapiens, Table 2, read-out: Cytostatic activity (μM) Sup T 1
Description: as §1

[20] = test system: U937, human monocytic cells; experiment: Cytostatic assay, U937; assay type: cell-based; settings: U-937, Table 2
Description: as §1

[21] = Table 1a, read-out: IC50 μM (CEM)
[22] = Table 2, read-out: Cytostatic activity (μM) CEM

Compound	IC50 (HUT-78 cells)	IC50 (BPH-1 (UZ))	IC50 [1]	IC50 [2]	IC50 (MT-4 cells)	IC50 [3]	IC50 [4]	IC50 (Huh-7 hepatoma cells)	IC50 (C8166 cells)	IC50 (CEM cells; [21])	IC50 (CEM cells; [22])	IC50 [5]	IC50 [6]	IC50 [7]	IC50 [8]	IC50 [9]	IC50 [10]	IC50 (PLC/PRF/5 hepatoma cells)	IC50 [11]	IC50 (U87 glioma cells)	also measured
COc1ccc(CCc2cc(C#N)c(N)s2)cc1 [TR586, 2-Amino-5-[2-(4-methoxy-phenyl)-ethyl]-thiophene-3-carbonitrile]	17 ± 8.1 µM	59 ± 18 µM	38 ± 2.1 µM	28 ± 3.5 µM	74 ± 37 µM	17 ± 8.1 µM	8.3 ± 2.5 µM	> 100 µM	57 ± 56 µM	16 µM	16 ± 17 µM	4.3 ± 0.6 µM	4.2 ± 0.14 µM	1.9 ± 0.42 µM	34 ± 23 µM	36 ± 21 µM	34 ± 6.4 µM	37 ± 0.71 µM	21 ± 9.9 µM	> 100 µM	IC50 [12]: 27 ± 18 µM; IC50 [13]: 1.9 ± 0.42 µM; IC50 (L1210 cells): 14 ± 4 µM; IC50 (Molt4/C8 cells): 1.4 ± 0.8 µM; IC50 [14]: 114 ± 62 µM; IC50 [15]: 1.8 ± 2 µM; IC50 [16]: 28 ± 27 µM; IC50 [17]: 38 ± 14 µM; IC50 (HepG2C3A hepatoma cells): 46 ± 13 µM; IC50 (MT-2 cells): 6.8 ± 3.7 µM; IC50 [18]: 0.83 ± 0.35 µM; IC50 [19]: > 100 µM; IC50 (Sup T1 cells): 79 ± 42 µM; IC50 [20]: 17 ± 2.8 µM
CCOC(=O)c1cc(CCc2cc(OC)ccc2OC)sc1N [TR587, 2-Amino-5-[2-(2,5-dimethoxy-phenyl)-ethyl]-thiophene-3-carboxylic acid ethyl ester]	0.43 ± 0.24 µM	0.39 ± 0.007 µM	0.93 ± 0.67 µM	1 ± 0.11 µM	1.7 ± 0.59 µM	0.19 ± 0.11 µM	1.4 ± 0.21 µM	0.71 ± 0.35 µM	0.82 ± 0.16 µM	0.76 µM	0.76 ± 0.48 µM	0.71 ± 0.18 µM	0.52 ± 0.007 µM	1.4 ± 0.5 µM	2 ± 0.28 µM	1.8 ± 0.42 µM	1.7 ± 0.14 µM	0.26 ± 0.15 µM	0.33 ± 0.028 µM	1.6 ± 1.1 µM	IC50 [12]: 0.51 ± 0.42 µM; IC50 [13]: 0.46 ± 0.35 µM; IC50 (L1210 cells): 1.2 ± 0.4 µM; IC50 (Molt4/C8 cells): 1.1 ± 1 µM; IC50 [14]: 0.83 ± 0.35 µM; IC50 [15]: 0.33 ± 0.099 µM; IC50 [16]: 3.2 ± 2.4 µM; IC50 [17]: 0.41 ± 0.028 µM; IC50 (HepG2C3A hepatoma cells): 1.1 ± 0.49 µM; IC50 (MT-2 cells): 0.7 ± 0.3 µM; IC50 [18]: 0.35 ± 0.064 µM; IC50 [19]: 0.27 ± 0.22 µM; IC50 (Sup T1 cells): 0.54 ± 0.007 µM; IC50 [20]: 0.92 ± 0.08 µM
N#Cc1cc(CCc2ccccc2)sc1N [TR588, 2-Amino-5-phenethyl-thiophene-3-carbonitrile]	18 ± 7.1 µM	≥ 100 µM	45 ± 4.9 µM	34 ± 14 µM	75 ± 35 µM	61 ± 34 µM	24 ± 4.9 µM	21 ± 7.1 µM	≥ 200 µM	47 µM	47 ± 25 µM	8.4 ± 0.28 µM	11 ± 4.2 µM	1.3 ± 0.4 µM	67 ± 23 µM	39 ± 21 µM	66 ± 6.4 µM	41 ± 3.5 µM	27 ± 28 µM	46 ± 7.8 µM	IC50 [12]: 27 ± 18 µM; IC50 [13]: 3.9 ± 0.5 µM; IC50 (L1210 cells): 40 ± 6 µM; IC50 (Molt4/C8 cells): 8.5 ± 3.4 µM; IC50 [14]: 26 ± 2.1 µM; IC50 [15]: 3.1 ± 1.2 µM; IC50 [16]: 78 ± 69 µM; IC50 [17]: 66 ± 31 µM; IC50 (HepG2C3A hepatoma cells): 64 ± 52 µM; IC50 (MT-2 cells): 6.65 ± 1.9 µM; IC50 [18]: 5.3 ± 4.3 µM; IC50 [19]: 30 ± 6.4 µM; IC50 (Sup T1 cells): > 200 µM; IC50 [20]: 42 ± 2.1 µM
COC(=O)c1cc(CCc2ccccn2)sc1N [TR596, 2-Amino-5-(2-pyridin-2-yl-ethyl)-thiophene-3-carboxylic acid methyl ester]	142 ± 83 µM	> 100 µM	> 100 µM	> 100 µM	> 100 µM	77 ± 27 µM	> 100 µM	46 ± 34 µM	≥ 200 µM	63 µM	63 ± 7.8 µM	116 ± 49 µM	8.6 ± 0.21 µM	17 ± 13 µM	210 ± 17 µM	76 ± 35 µM	> 100 µM	> 100 µM	45 ± 3 µM	> 100 µM	IC50 [12]: 135 ± 92 µM; IC50 [13]: 73 ± 30 µM; IC50 (L1210 cells): 101 ± 28 µM; IC50 (Molt4/C8 cells): 21 ± 4 µM; IC50 [14]: 72 ± 45 µM; IC50 [15]: 8.5 ± 7.8 µM; IC50 [16]: > 200 µM; IC50 [17]: > 100 µM; IC50 (HepG2C3A hepatoma cells): 69 ± 45 µM; IC50 (MT-2 cells): 48 ± 7.1 µM; IC50 [18]: 4.3 ± 3.2 µM; IC50 [19]: 43 ± 9.2 µM; IC50 (Sup T1 cells): 99 µM; IC50 [20]: > 200 µM
COC(=O)c1cc(CCc2cccnc2)sc1N [TR597, 2-Amino-5-(2-pyridin-3-yl-ethyl)-thiophene-3-carboxylic acid methyl ester]	59 ± 33 µM	> 100 µM	> 100 µM	> 100 µM	> 100 µM	≥ 100 µM	60 ± 21 µM	78 ± 32 µM	≥ 200 µM	50 µM	50 ± 6.4 µM	> 200 µM	12 ± 5.5 µM	7.7 ± 0.5 µM	164 ± 30 µM	> 100 µM	> 100 µM	> 100 µM	170 ± 25 µM	> 100 µM	IC50 [12]: ≥ 111 µM; IC50 [13]: 63 ± 15 µM; IC50 (L1210 cells): 235 ± 49 µM; IC50 (Molt4/C8 cells): 47 ± 15 µM; IC50 [14]: 71 ± 30 µM; IC50 [15]: 6.3 ± 4.7 µM; IC50 [16]: > 200 µM; IC50 [17]: > 100 µM; IC50 (HepG2C3A hepatoma cells): > 100 µM; IC50 (MT-2 cells): 38 ± 15 µM; IC50 [18]: 7.4 ± 0.75 µM; IC50 [19]: ≥ 100 µM; IC50 (Sup T1 cells): 147 ± 66 µM; IC50 [20]: > 200 µM
